pIC50: −log10 of the molar value.
System: 186277-243-T-J2-PDC complex spheroid growth
Assay: Anticancer human tumor 186277-243-T-J2-PDC patient-derived colon adenocarcinoma cell line growth inhibition [AhR]
Conditions: for pIC50: curve of first compound; for viability, T/C: stronger effect = lower value
How it was run: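 Spheroids combined tumor cells with HUVEC endothelial cells and human MSCs as stroma. AhR antagonists were paired with standard or investigational drugs, each dosed in half-log steps down from near clinical Cmax, or from 10 microM where Cmax was unknown.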

[1] = second compound 0.1 µM, first compound 0.0316 µM
[2] = second compound 0.1 µM, first compound 0.1 µM
[3] = second compound 0.1 µM, first compound 0.316 µM
[4] = second compound 0.1 µM, first compound 1 µM
[5] = second compound 0.1 µM, first compound 3.16 µM
[6] = second compound 0.1 µM, first compound 10 µM
[7] = second compound 0.316 µM, first compound 0.0316 µM
[8] = second compound 0.316 µM, first compound 0.1 µM
[9] = second compound 0.316 µM, first compound 0.316 µM
[10] = second compound 0.316 µM, first compound 1 µM
[11] = second compound 0.316 µM, first compound 3.16 µM
[12] = second compound 0.316 µM, first compound 10 µM
[13] = second compound 1 µM, first compound 0.0316 µM
[14] = second compound 1 µM, first compound 0.1 µM
[15] = second compound 1 µM, first compound 0.316 µM
[16] = second compound 1 µM, first compound 1 µM
[17] = second compound 1 µM, first compound 3.16 µM
[18] = second compound 1 µM, first compound 10 µM
[19] = second compound 3.16 µM, first compound 0.0316 µM
[20] = second compound 3.16 µM, first compound 0.1 µM
[21] = second compound 3.16 µM, first compound 0.316 µM
[22] = second compound 3.16 µM, first compound 1 µM
[23] = second compound 3.16 µM, first compound 3.16 µM
[24] = second compound 3.16 µM, first compound 10 µM
[25] = second compound 10 µM, first compound 0.0316 µM
[26] = second compound 10 µM, first compound 0.1 µM
[27] = second compound 10 µM, first compound 0.316 µM
[28] = second compound 10 µM, first compound 1 µM
[29] = second compound 10 µM, first compound 3.16 µM
[30] = second compound 10 µM, first compound 10 µM
[31] = second compound 0.1 µM, first compound 0.00316 µM
[32] = second compound 0.1 µM, first compound 0.01 µM
[33] = second compound 0.316 µM, first compound 0.00316 µM
[34] = second compound 0.316 µM, first compound 0.01 µM
[35] = second compound 1 µM, first compound 0.00316 µM
[36] = second compound 1 µM, first compound 0.01 µM
[37] = second compound 3.16 µM, first compound 0.00316 µM
[38] = second compound 3.16 µM, first compound 0.01 µM
[39] = second compound 10 µM, first compound 0.00316 µM
[40] = second compound 10 µM, first compound 0.01 µM
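Note: spheroids exposed to compounds for seven days before the viability read.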
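Throughout, for viability, T/C: luminescent signal used as a stand-in for viable cell amount; 100% = DMSO vehicle control wells.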

SMILES | pIC50 (second compound 0.1 µM) | pIC50 (second compound 0.316 µM) | pIC50 (second compound 1 µM) | pIC50 (second compound 3.16 µM) | pIC50 (second compound 10 µM) | viability, T/C [1] | viability, T/C [2] | viability, T/C [3] | viability, T/C [4] | viability, T/C [7] | viability, T/C [8] | viability, T/C [9] | viability, T/C [10] | viability, T/C [13] | viability, T/C [14] | viability, T/C [15] | viability, T/C [19] | viability, T/C [20] | viability, T/C [25] | viability, T/C [26] | other results
CC(C)c1c(-c2ccccc2)nc2c(C#N)c[nH]n2c1=O + Cc1ccccc1N=Nc1ccc(NC(=O)c2ccnn2C)c(C)c1 | < 5.00 | < 5.00 | < 5.00 | < 5.00 | < 5.00 | 97.4% | 110% | 104% | 105% | 103% | 104% | 103% | 98% | 98.9% | 106% | 115% | 95.2% | 108% | 102% | 97.2% | viability, T/C [5]: 109%; viability, T/C [6]: 97.5%; viability, T/C [11]: 112%; viability, T/C [12]: 98%; viability, T/C [16]: 96.4%; viability, T/C [17]: 98.3%; viability, T/C [18]: 104%; viability, T/C [21]: 94.3%; viability, T/C [22]: 99.7%; viability, T/C [23]: 99.7%; viability, T/C [24]: 98.7%; viability, T/C [27]: 92.6%; viability, T/C [28]: 101%; viability, T/C [29]: 85.8%; viability, T/C [30]: 90.1%
CC[C@@]1(O)C(=O)OCc2c1cc1n(c2=O)Cc2cc3c(CN(C)C)c(O)ccc3nc2-1 + Cc1cncc(-c2nc(NCCc3c[nH]c4ccccc34)c3ncn(C(C)C)c3n2)c1 | < 7.00 | < 7.00 | < 7.00 | < 7.00 | 8.88 | 92.6% | 62% |  |  | 86.2% | 64.8% |  |  | 85.2% | 69.4% |  | 87.4% | 68.9% | 31% | 39% | viability, T/C (second compound 0.1 µM, first compound 0.000316 µM): 98.8%; viability, T/C (second compound 0.1 µM, first compound 0.001 µM): 96.3%; viability, T/C [31]: 118%; viability, T/C [32]: 112%; viability, T/C (second compound 0.316 µM, first compound 0.000316 µM): 107%; viability, T/C (second compound 0.316 µM, first compound 0.001 µM): 101%; viability, T/C [33]: 104%; viability, T/C [34]: 135%; viability, T/C (second compound 1 µM, first compound 0.000316 µM): 99.6%; viability, T/C (second compound 1 µM, first compound 0.001 µM): 108%; viability, T/C [35]: 125%; viability, T/C [36]: 140%; viability, T/C (second compound 3.16 µM, first compound 0.000316 µM): 118%; viability, T/C (second compound 3.16 µM, first compound 0.001 µM): 109%; viability, T/C [37]: 145%; viability, T/C [38]: 135%; viability, T/C (second compound 10 µM, first compound 0.000316 µM): 49.5%; viability, T/C (second compound 10 µM, first compound 0.001 µM): 57.9%; viability, T/C [39]: 38.7%; viability, T/C [40]: 28.6%
Nc1ncn(C2CC(O)C(CO)O2)c(=O)n1 (stereo not given) + Cc1cncc(-c2nc(NCCc3c[nH]c4ccccc34)c3ncn(C(C)C)c3n2)c1 | < 6.00 | < 6.00 | < 6.00 | < 6.00 | < 6.00 | 91.4% | 119% | 147% | 143% | 107% | 113% | 137% | 150% | 99.9% | 126% | 156% | 111% | 118% | 56.7% | 46.6% | viability, T/C [31]: 116%; viability, T/C [32]: 86.8%; viability, T/C [33]: 120%; viability, T/C [34]: 93.6%; viability, T/C [35]: 98.5%; viability, T/C [36]: 104%; viability, T/C [16]: 157%; viability, T/C [37]: 114%; viability, T/C [38]: 113%; viability, T/C [21]: 120%; viability, T/C [22]: 165%; viability, T/C [39]: 59.8%; viability, T/C [40]: 65.1%; viability, T/C [27]: 52.6%; viability, T/C [28]: 68.6%

The next lines start with results.

pIC50 (second compound 0.1 µM) | pIC50 (second compound 0.316 µM) | pIC50 (second compound 1 µM) | pIC50 (second compound 3.16 µM) | pIC50 (second compound 10 µM) | SMILES | viability, T/C [1] | viability, T/C [2] | viability, T/C [3] | viability, T/C [4] | viability, T/C [7] | viability, T/C [8] | viability, T/C [9] | viability, T/C [10] | viability, T/C [13] | viability, T/C [14] | viability, T/C [15] | viability, T/C [19] | viability, T/C [20] | viability, T/C [25] | viability, T/C [26] | other results
5.67 | 5.84 | 5.80 | 5.84 | 7.31 | COc1cc(C2c3cc4c(cc3C(OC3OC5COC(C)OC5C(O)C3O)C3COC(=O)C23)OCO4)cc(OC)c1O (stereo not given) + Cc1cncc(-c2nc(NCCc3c[nH]c4ccccc34)c3ncn(C(C)C)c3n2)c1 | 119% | 111% | 113% | 58.7% | 119% | 124% | 107% | 53.4% | 110% | 149% | 99.8% | 127% | 147% | 55% | 44.5% | viability, T/C [5]: 52%; viability, T/C [6]: 21.9%; viability, T/C [11]: 48%; viability, T/C [12]: 21.1%; viability, T/C [16]: 59.5%; viability, T/C [17]: 44.6%; viability, T/C [18]: 19.9%; viability, T/C [21]: 89.3%; viability, T/C [22]: 59.4%; viability, T/C [23]: 42.7%; viability, T/C [24]: 19.9%; viability, T/C [27]: 20.8%; viability, T/C [28]: 24.3%; viability, T/C [29]: 22.9%; viability, T/C [30]: 9.36%
6.70 | 6.77 | 6.79 | 6.90 | > 7.50 | COc1cccc2c1C(=O)c1c(O)c3c(c(O)c1C2=O)CC(O)(C(=O)CO)CC3OC1CC(N)C(O)C(C)O1 (stereo not given) + Cc1cncc(-c2nc(NCCc3c[nH]c4ccccc34)c3ncn(C(C)C)c3n2)c1 | 107% | 78.6% | 32.6% | 0.46% | 110% | 70.4% | 28.2% | 0.27% | 93.2% | 71.3% | 21.2% | 83.5% | 59.9% | 21.9% | 18.5% | viability, T/C [5]: 0.03%; viability, T/C [6]: 0.25%; viability, T/C [11]: 0.04%; viability, T/C [12]: 0.22%; viability, T/C [16]: 0.08%; viability, T/C [17]: 0.32%; viability, T/C [18]: 0.26%; viability, T/C [21]: 10.8%; viability, T/C [22]: 0.05%; viability, T/C [23]: 0.21%; viability, T/C [24]: 0.79%; viability, T/C [27]: 3.26%; viability, T/C [28]: 0.12%; viability, T/C [29]: 0.49%; viability, T/C [30]: 0.31%
> 7.50 | > 7.50 | > 7.50 | > 7.50 | > 7.50 | Nc1ccn(C2OC(CO)C(O)C2(F)F)c(=O)n1 (stereo not given) + Cc1cncc(-c2nc(NCCc3c[nH]c4ccccc34)c3ncn(C(C)C)c3n2)c1 | 7.18% | 8.73% | 9.08% | 7.46% | 7.58% | 7.59% | 8.77% | 7.4% | 8.42% | 8.73% | 8.67% | 8.88% | 9.87% | 9.79% | 9.68% | viability, T/C [5]: 9.53%; viability, T/C [6]: 8.43%; viability, T/C [11]: 9.8%; viability, T/C [12]: 10.2%; viability, T/C [16]: 8.54%; viability, T/C [17]: 10.4%; viability, T/C [18]: 9.89%; viability, T/C [21]: 8.78%; viability, T/C [22]: 9.16%; viability, T/C [23]: 10.2%; viability, T/C [24]: 11.2%; viability, T/C [27]: 7.97%; viability, T/C [28]: 8.56%; viability, T/C [29]: 9.28%; viability, T/C [30]: 10.2%
